Entries after “also recorded” stand apart in the source; their conditions may differ. Read-outs that look alike come from different tables or passages of the source.
Columns and labels:
[1] = tested on: SARS-CoV-2; experiment: microbe, parasite or virus in culture; format: cell-based, SARS-CoV-2 (strain 2019-nCoV/USA_WA1/2020)
[2] = target: SARS-CoV 3CLpro (Severe acute respiratory syndrome coronavirus, UniProt P0C6X7); format: biochemical
[3] = tested on: SARS-CoV; conditions: cited from earlier work
[4] = Cytotoxicity; format: cell-based
[5] = tested on: 3CLpro; conditions: read-out: reported IC50; reported value, no reference given; cited from earlier work
[6] = Severe acute respiratory syndrome coronavirus 2, 48 h

For O=C(NC(Cc1ccccc1)C(=O)Nc1ccc([N+](=O)[O-])cc1Cl)c1cc(Cl)ccc1O (stereo not drawn) [JMX0285], the EC50 [1] was 3030 nM.

For O=C(Nc1ccc([N+](=O)[O-])cc1Cl)c1cc(Cl)ccc1O [niclosamide], the “Inhibitory activity against SARS-CoV 3CLpro” value [2] is listed as “does not inhibit; also recorded: no obvious inhibitory activity”, the “Concentration suppressing the cytopathic effect (CPE) of SARS-CoV” value [3] is listed as 1 µM and the EC50 ([3]; read-out: EC50 of SARS-CoV replication) is listed as less than 100 nM.

Molecule CC(C)C[C@H](NC(=O)c1cc(Cl)ccc1O)C(=O)Nc1ccc([N+](=O)[O-])cc1Cl [JMX0671] has an EC50 [1] of 1560 nM.

O=C(Nc1ccc(C(F)(F)F)cc1Cl)c1cccc([N+](=O)[O-])c1O [JMX0310, N-(2-Chloro-4-(trifluoromethyl)phenyl)-2-hydroxy-3-nitrobenzamide] showed an EC50 [1, 6] of 2410 nM and a CC50 at 48 h [4] of 10100 nM.

With CC(C)[C@H](NC(=O)c1cc(Cl)ccc1O)C(=O)Nc1ccc(F)c(F)c1 [JMX0681] the EC50 [1] was 9750 nM.

CC(C)[C@H](NC(=O)c1cc(Cl)ccc1O)C(=O)Nc1ccc(C(F)(F)F)cc1Cl [JMX0672] showed an EC50 [1] of 1920 nM.

With C[C@H](NC(=O)c1cc(Cl)ccc1O)C(=O)Nc1ccc([N+](=O)[O-])cc1Cl [JMX0674] the EC50 [1] was 9750 nM.

In the case of CC(C)[C@H](NC(=O)c1cc(Cl)ccc1O)C(=O)Nc1ccc([N+](=O)[O-])cc1Cl [JMX0281], the EC50 [1] is reported as 2080 nM.

Molecule CC(C)[C@H](NC(=O)c1cc(Cl)ccc1O)C(=O)Nc1cc(F)cc(C(F)(F)F)c1 [JMX0680] has an EC50 [1] of 4570 nM.

Molecule O=C(Nc1ccc([N+](=O)[O-])cc1Cl)c1cccc([N+](=O)[O-])c1O [JMX0207] has an EC50 [1] of 1220 nM.

Work on O=C(Nc1ccc(F)c(F)c1)c1cc(Cl)ccc1O [JMX0321] yielded an EC50 [1] of 1190 nM.

Work on CC(C)(C)NC(=O)N[C@H](C(=O)N1C[C@H]2[C@@H]([C@H]1C(=O)NC(CC1CCC1)C(=O)C(N)=O)C2(C)C)C(C)(C)C (stereo partly drawn) [Boceprevir, boceprevir, reference compound] yielded an EC50 ([1]; Severe acute respiratory syndrome coronavirus 2, read-out: SARS-CoV-2 3CLpro EC50, Table 2, cell-based antiviral assay, SARS-CoV-2 viral replication) of 15600 nM.

Molecule CCC(C)[C@H](NC(=O)c1cc(Cl)ccc1O)C(=O)Nc1ccc([N+](=O)[O-])cc1Cl (stereo partly drawn) [JMX0673] has an EC50 [1] of 1740 nM.

In the case of CC(C)(C)OC(=O)NCCOc1ccc(Cl)cc1C(=O)NCC(=O)Nc1ccc([N+](=O)[O-])cc1Cl [JMX0301, Tert-Butyl (2-(4-chloro-2-((2-((2-chloro-4-nitrophenyl)amino)-2-oxoethyl)carbamoyl)phenoxy)ethyl)carbamate], the “SARS-CoV-2 3CLpro EC50” value ([1]; Table 2, cell-based antiviral assay, SARS-CoV-2 viral replication) is reported as “No Dose response”.

In the case of O=C(Nc1cc(F)cc(C(F)(F)F)c1)c1cc(Cl)ccc1O [JMX0312], the EC50 [1] is reported as 1130 nM.

With Cl.NCCOc1ccc(Cl)cc1C(=O)NCC(=O)Nc1ccc([N+](=O)[O-])cc1Cl [JMX0286, 2-(2-Aminoethoxy)-5-chloro-N-(2-((2-chloro-4-nitrophenyl)amino)-2-oxoethyl)benzamide hydrochloride] the EC50 [1, 6] was 2250 nM and the CC50 at 48 h [4] was 3780 nM.

For O=C(Nc1cc(F)cc(C(F)(F)F)c1)c1cccc([N+](=O)[O-])c1O [JMX0317, N-(3-Fluoro-5-(trifluoromethyl)phenyl)-2-hydroxy-3-nitrobenzamide], the EC50 [1, 6] was 4030 nM and the CC50 at 48 h [4] was 11700 nM.

In the case of CC(C)[C@H](NC(=O)c1cc(Cl)ccc1O)C(=O)Nc1cc(C(F)(F)F)cc(C(F)(F)F)c1 [JMX0679], the EC50 [1] is reported as 2510 nM.

For CC(C)(C)NC(=O)[C@@H](c1cccnc1)N(C(=O)c1ccco1)c1ccc(C(C)(C)C)cc1 [ML-188], the IC50 [5] is given as roughly 2000 nM.

In the case of O=C(Nc1cc(C(F)(F)F)cc(C(F)(F)F)c1)c1cccc([N+](=O)[O-])c1O [JMX0330, N-(3,5-Bis(trifluoromethyl)phenyl)-2-hydroxy-3-nitrobenzamide], the EC50 [1, 6] is reported as 498 nM, the EC50 ([1]; listed as JMX0320) is reported as “sub-micromolar” and the CC50 at 48 h [4] is reported as 10200 nM.

From paper PMC9272661 (Antiviral Research, 2022)
